From PMC12682947, “Identification of New KCNT1‐Epilepsy Drugs by In Silico, Cell, and Drosophila Modeling” (Annals of Neurology, 2025)
Counter-ions that a name gives are not always drawn.

Legend:
Format in all cases: in vivo, Drosophila melanogaster
Conditions in all cases: drug in food
[1] = test system: Drosophila KCNT1 mutant line R928C; assay: Bang-sensitive behavioral seizure assay, Drosophila KCNT1 mutant line R928C
Description: (§1) The Drosophila melanogaster lines carrying the WT human KCNT1 transgene (NM_020822_3) or KCNT1 mutant G288S, R398Q or R928C transgene placed downstream of the yeast UAS promoter, have been described previously.[11] WT or mutant human UAS‐KCNT1 flies were crossed to flies expressing the GAL4 transcriptional activator under the control of the GAD1 promoter (GABAergic driver, Bloomington stock number 51630 P2) to drive expression of KCNT1 in GABAergic neurons, involved in neuronal inhibition.[11]
(§2) The bang‐sensitive behavioral assay (also known as the banging assay) was used to test for the presence of a seizure phenotype in Drosophila.[11], [30] Experiments were performed and scored, as previously described,[11] with a minimum of 50 Drosophila tested for each genotype and drug concentration.
(§3) Four drugs were selected for in vivo analysis to determine their effects on the seizure phenotypes in transgenic Drosophila lines with human mutant KCNT1 channels. […]
(§4) In all experiments, experimenters were not blinded to variants or treatments, nor were samples randomly assigned to groups. Sample sizes were not calculated in advance and no data were excluded from the analysis. Data were analyzed using GraphPad Prism 9 software (San Diego, CA, USA). […] All data passed normality and lognormality Shapiro–Wilk tests, determined by GraphPad Prism 9. […]

[2] = test system: Drosophila KCNT1 mutant line R398Q; assay: Bang-sensitive behavioral seizure assay, Drosophila KCNT1 mutant line R398Q
Description: as §1, §2, §3, §4

[3] = test system: Drosophila KCNT1 mutant line G288S; assay: Bang-sensitive behavioral seizure assay, Drosophila KCNT1 mutant line G288S
Description: as §1, §2, §3, §4

## O=C(OCCN1CCN(c2cccc(C(F)(F)F)c2)CC1)c1ccccc1Nc1ccnc2cc(C(F)(F)F)ccc12 [antrafenine]
[1]
  reduction of the seizure phenotype: 25%
[2]
  reduction of the seizure phenotype: at least 50%
[3]
  reduction of the seizure phenotype: at least 50%

## Cc1c(O)cccc1C(=O)N[C@@H](CSc1ccccc1)[C@H](O)CN1C[C@H]2CCCC[C@H]2C[C@H]1C(=O)NC(C)(C)C [nelfinavir mesylate]
[1]
  reduction of the seizure phenotype: 50%
[2]
  reduction of the seizure phenotype: 50%
[3]
  reduction of the seizure phenotype: 50%
